How the values were obtained:
[1] = tested on: Enterococcus faecium and faecalis (SENSITIVE); test: MIC, standard broth micro-dilution assay, sensitive enterococci; format: cell-based; conditions: geometric mean of 4-6 isolates
[2] = tested on: Staphylococcus aureus 489; test: MIC, standard broth micro-dilution assay, SA489; format: cell-based
[3] = tested on: Staphylococcus aureus 447; test: MIC, standard broth micro-dilution assay, SA447; format: cell-based
[4] = tested on: Staphylococcus haemolyticus 105; test: MIC, standard broth micro-dilution assay, SH 105; format: cell-based
[5] = tested on: Staphylococcus haemolyticus 415; test: MIC, standard broth micro-dilution assay, SH 415; format: cell-based
[6] = tested on: Streptococcus pyogenes C203; test: MIC, standard broth micro-dilution assay, SPY C203; format: cell-based
[7] = tested on: Enterococcus faecium and faecalis (RESISTANT); conditions: geometric mean of 4-6 isolates
Procedure: (§1) The minimal inhibitory concentrations (MICs) were determined using a standard broth micro-dilution assay.

[8] = tested on: Staphylococcus aureus 446
Procedure: as §1

[9] = tested on: Streptococcus pneumoniae P1
Procedure: as §1

[10] = tested on: Staphylococcus epidermidis 270

| Compound | Minimal Inhibitory Concentration (MIC) Sensitive [1] | Minimal Inhibitory Concentration (MIC) SA 489 [2] | Minimal Inhibitory Concentration (MIC) SA 447 [3] | Minimal Inhibitory Concentration (MIC) SH 105 [4] | Minimal Inhibitory Concentration (MIC) SH 415 [5] | Minimal Inhibitory Concentration (MIC) SPY C203 [6] | Minimal Inhibitory Concentration (MIC) Resistant [7] | Minimal Inhibitory Concentration (MIC) SA 446 [8] | Minimal Inhibitory Concentration (MIC) SPN P1 [9] | Minimal Inhibitory Concentration (MIC) SE 270 [10] |
| --- | --- | --- | --- | --- | --- | --- | --- | --- | --- | --- |
| CC1OC(OC2c3ccc(c(Cl)c3)Oc3cc4cc(c3OC3OC(CO)C(O)C(O)C3OC3CC(C)(NCCCCCCCCc5ccccc5)C(O)C(C)O3)Oc3ccc(cc3Cl)C(O)C(N)C(=O)NC(CC(N)=O)C(=O)NC4C(=O)NC3C(=O)NC2C(=O)NC(C(=O)O)c2cc(O)cc(O)c2-c2cc3ccc2O)CC(C)(N)C1O (stereo not drawn) [Example 8, N^DISACC -(8-PHENYL-n-OCTYL)DESLEUCYL-A82846B] | 0.76 | 1 | 2 | 0.25 | 2 | 0.125 | 5.7 | 4 | 0.125 | 1 |
| CC1OC(OC2c3ccc(c(Cl)c3)Oc3cc4cc(c3OC3OC(CO)C(O)C(O)C3OC3CC(C)(NCc5ccc(Oc6ccccc6)cc5)C(O)C(C)O3)Oc3ccc(cc3Cl)C(O)C(N)C(=O)NC(CC(N)=O)C(=O)NC4C(=O)NC3C(=O)NC2C(=O)NC(C(=O)O)c2cc(O)cc(O)c2-c2cc3ccc2O)CC(C)(N)C1O (stereo not drawn) [Example 3, N^DISACC -(p-PHENOXYBENZYL)-DESLEUCYL-A82846B] | 14 | 1 | 1 | 2 | 1 | ≤ 0.06 | 45 | 2 | ≤ .06 | 0.5 |
| CC1OC(OC2c3ccc(c(Cl)c3)Oc3cc4cc(c3OC3OC(CO)C(O)C(O)C3OC3CC(C)(N)C(O)C(C)O3)Oc3ccc(cc3Cl)C(O)C(N)C(=O)NC(CC(N)=O)C(=O)NC4C(=O)NC3C(=O)NC2C(=O)NC(C(=O)O)c2cc(O)cc(O)c2-c2cc3ccc2O)CC(C)(N)C1O (stereo not drawn) [Example 1, DESLEUCYL-A82846B] | > 128 | 32 | 64 | > 64 | > 64 | 4 | > 128 | 64 | – | 64 |
| CCCCc1ccc(CNC2(C)CC(OC3C(Oc4c5cc6cc4Oc4ccc(cc4Cl)C(OC4CC(C)(N)C(O)C(C)O4)C4NC(=O)C(NC(=O)C6NC(=O)C(CC(N)=O)NC(=O)C(N)C(O)c6ccc(c(Cl)c6)O5)c5ccc(O)c(c5)-c5c(O)cc(O)cc5C(C(=O)O)NC4=O)OC(CO)C(O)C3O)OC(C)C2O)cc1 (stereo not drawn) [Example 5, N^DISACC -(p-n-BUTYLBENZYL)-DESLEUCYL-A82846B] | 9.2 | 1 | 2 | 1 | 2 | 0.125 | 108 | 1 | 0.25 | 1 |
| CC1OC(OC2c3ccc(c(Cl)c3)Oc3cc4cc(c3OC3OC(CO)C(O)C(O)C3O)Oc3ccc(cc3Cl)C(O)C(N)C(=O)NC(CC(N)=O)C(=O)NC4C(=O)NC3C(=O)NC2C(=O)NC(C(=O)O)c2cc(O)cc(O)c2-c2cc3ccc2O)CC(C)(N)C1O (stereo not drawn) [Example 7, N^DISACC -DES-EPIVANCOAMINYL-DESLEUCYL-A82846B] | 56 | 8 | 64 | 64 | > 64 | 4 | > 128 | 32 | 2 | > 64 |
| CC1OC(OC2c3ccc(c(Cl)c3)Oc3cc4cc(c3OC3OC(CO)C(O)C(O)C3OC3CC(C)(NCc5ccc(-c6ccc(Cl)cc6)cc5)C(O)C(C)O3)Oc3ccc(cc3Cl)C(O)C(N)C(=O)NC(CC(N)=O)C(=O)NC4C(=O)NC3C(=O)NC2C(=O)NC(C(=O)O)c2cc(O)cc(O)c2-c2cc3ccc2O)CC(C)(N)C1O (stereo not drawn) [Example 6, N^DISACC -(p-(p-CHLOROPHENYL)-BENZYL)DESLEUCYL-A82846B] | 2.6 | 2 | 1 | 0.5 | 1 | ≤ .06 | 6.7 | 2 | 0.25 | 0.5 |
| CC1OC(OC2c3ccc(c(Cl)c3)Oc3cc4cc(c3OC3OC(CO)C(O)C(O)C3OC3CC(C)(NCc5ccc(Cl)cc5)C(O)C(C)O3)Oc3ccc(cc3Cl)C(O)C(N)C(=O)NC(CC(N)=O)C(=O)NC4C(=O)NC3C(=O)NC2C(=O)NC(C(=O)O)c2cc(O)cc(O)c2-c2cc3ccc2O)CC(C)(N)C1O (stereo not drawn) [Example 2, N^DISACC -(p-CHLOROBENZYL)-DESLEUCYL-A82846B] | 5.2 | 0.5 | 2 | 2 | 4 | ≤ 0.06 | > 81 | 4 | – | 2 |
| CC1OC(OC2c3ccc(c(Cl)c3)Oc3cc4cc(c3OC3OC(CO)C(O)C(O)C3OC3CC(C)(NCc5ccc(-c6ccccc6)cc5)C(O)C(C)O3)Oc3ccc(cc3Cl)C(O)C(N)C(=O)NC(CC(N)=O)C(=O)NC4C(=O)NC3C(=O)NC2C(=O)NC(C(=O)O)c2cc(O)cc(O)c2-c2cc3ccc2O)CC(C)(N)C1O (stereo not drawn) [Example 4, N^DISACC -(p-PHENYLBENZYL)-DESLEUCYL-A82846B] | 3.4 | 0.25 | 1 | 1 | 1 | ≤ 0.06 | 16 | 2 | 0.125 | 1 |

— patent US5952310A, “Glycopeptide hexapeptides” (priority 1998, dated 1999)
